Laboratory results reported in article PMC6753678, “Fueling Open Innovation for Malaria Transmission-Blocking Drugs: Hundreds of Molecules Targeting Early Parasite Mosquito Stages” (Frontiers in Microbiology, 2019).
Where two headings read alike, the source gives them in different places.

Columns and labels:
HepG2 cells = assay: HepG2 cytotoxicity assay; settings: for Pb ODA (this manuscript) HepG2 cytoxicity: HepG2 cytotoxicity listed with the Pb ODA data set (this manuscript); for IC50: read-out: HepG2 cytotoxicity assay IC50, dose response confirmation
In short: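 Cells are plated at 2,500 per well on compound-treated plates in MEM containing 10% fetal bovine serum and 1% NEAA, then incubated 48 h at 37°C.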

[1] = test system: 3D7-strain P. falciparum asexual parasites; assay: P. falciparum asexual growth inhibition assay (Pf GIA); type: cell-based, Plasmodium falciparum; settings: dose response confirmation; read-out: Pf asexual growth inhibition assays IC50
In short: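 3D7 parasites at 0.25% parasitemia, 2% hematocrit were exposed to compounds in dose response for 72 h at 37°C under 5% CO2, 5% O2. Viability read as parasite LDH activity (nitro blue tetrazolium, A650) after freeze-thaw; inhibition scaled to chloroquine (50 μM) and DMSO controls, mean of three biological replicates.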

[2] = test system: P. berghei ookinete development; settings: for % inhibition, Replicate A / % inhibition, Replicate B: primary screen at 1 μM
[3] = read-out: Pb Ookinete development assay IC50, dose response confirmation
[4] = HepG2 values of the three screens unified
[5] = read-out: Pb ODA IC50, this manuscript
[6] = unified HepG2 value across the three screens
[7] = read-out: Pb ODA (this manuscript) IC50, P. berghei ookinete development assay, this manuscript

Row | SMILES | Pb ODA (this manuscript) HepG2 cytoxicity (HepG2 cells) | IC50 (HepG2 cells) | IC50 [1] | Is compound selective in assay? Pb ODA active? [2] | % inhibition, Replicate A [2] | % inhibition, Replicate B [2] | IC50 [2, 3] | HepG2 cytoxicity (Pb ODA, this manuscript) (HepG2 cells) | Unified cytotox (HepG2 cells; [4]) | Is compound selective in assay? Pb ODA active? ([2]; 1: YES, 0: NO) | IC50 [2, 5] | Unified cytotox (HepG2 cells; [6]) | IC50 [2, 7]
1 | Cl.Nc1nc(N)c2c(ccc3c2cnn3S(=O)(=O)N2CCCC2)n1 [TCMDC-137852] | 0.00412 µM | 0.00412 µM | 3.8 nM | 0 (key: 1: YES; 0: NO) | 40.87% | 51.00% | 1530 nM | – | – | – | – | – | –
2 | Cc1[nH]c(C)c(-c2ccc(CCc3cccc(C(F)(F)F)c3)nc2)c(=O)c1Cl [TCMDC-136014] | – | 7.08 µM | 93 nM | – | 91.00% | 104.63% | 123 nM | 7.08 µM | 7.08 µM | 1 (1: YES) | 120 nM | – | –
3 | Cc1cc(=O)c2cc(-c3ccc(OC(F)(F)F)cc3)ccc2[nH]1 [TCMDC-137042] | – | 100 µM | 2190 nM | – | 37.82% | 64.25% | 6380 nM | – | – | 1 (1: YES) | 6380 nM | 100.00 µM | –
4 | O=c1c2ccccc2[nH]c2cc(Cl)ccc12 [TCMDC-123989] | – | 50.7 µM | 1280 nM | – | 43.19% | 69.34% | 1180 nM | – | – | 1 (1: YES) | 1180 nM | 50.70 µM | –
5 | Cc1[nH]c(C)c(-c2ccc(OCc3cc(F)cc(F)c3)nc2)c(=O)c1Cl [TCMDC-135676] | – | 7.85 µM | 36 nM | – | 78.17% | 102.44% | 2070 nM | 7.85 µM | 7.85 µM | 0 (0: NO) | 2070 nM | – | –
6 | Cl.OCC(CO)(CO)NCc1ccc2c3c(cccc13)-c1ccccc1-2 [TCMDC-137877] | – | 9.55 µM | 1970 nM | – | 56.61% | 22.47% | 564 nM | – | – | 1 (1: YES) | 560 nM | 9.55 µM | –
7 | Br.CC(C)(C)c1ccccc1OCCCON1C(=N)N=C(N)NC1(C)C [TCMDC-131751] | 0.001 µM | 0.001 µM | < 0.2 nM | 0 (key: 1: YES; 0: NO) | 62.16% | 60.88% | 3070 nM | – | – | – | – | – | 3070 nM
8 | CCCC(C)n1ccc2c3c(N)nc(N)nc3ccc21 (stereo not shown) [TCMDC-137964] | – | 0.03 µM | 35 nM | – | 50.53% | 51.77% | 4290 nM | 0.03 µM | 0.03 µM | 0 (0: NO) | 4290 nM | – | –
9 | Cl.O=C(NC1CCN(CC2(c3ccc(Cl)cc3)CCCCC2)CC1)c1cc[nH]n1 [TCMDC-124828] | 35.89 µM | 35.9 µM | 66 nM | 1 (key: 1: YES; 0: NO) | 40.92% | 76.27% | 1620 nM | – | – | – | – | – | 1620 nM
10 | CCCCC1=CC2C(=O)C(C(=O)OC)=CN=C2C=C1OCc1ccccc1 (stereo not shown) [TCMDC-137492] | – | 100 µM | 140 nM | – | 85.39% | 106.84% | 3020 nM | – | – | 1 (1: YES) | 3020 nM | 100.00 µM | –
11 | CC(Oc1ccc(NC(=O)c2cccs2)cc1)C(=O)c1ccc(Cl)cc1 (stereo not shown) [TCMDC-125438] | 100.00 µM | 100 µM | 512 nM | 1 (key: 1: YES; 0: NO) | 52.47% | 58.23% | 1010 nM | – | – | – | – | – | 1010 nM
12 | Cc1cccc(Nc2nc(NCCCCN)nc3cc[nH]c(=O)c23)c1.O=C(O)C(F)(F)F [TCMDC-134946] | – | 28.8 µM | 487 nM | – | 57.54% | 45.06% | 3060 nM | – | – | 0 (0: NO) | 3060 nM | 28.84 µM | –
13 | CCOC(=O)C1=C(C)NC2=C(C(=O)C(C(=O)OC)C(C)C2)C1c1cc(Br)c(OCC)c(OC)c1 (stereo not shown) [TCMDC-125139] | – | 100 µM | 1420 nM | – | 3.38% | 50.55% | 9060 nM | – | – | 1 (1: YES) | 9060 nM | 100.00 µM | –
